This note sets out measurements from US20250136607A1 (REGOR PHARMACEUTICALS, INC., priority 2021, published 2025).

The test system of this test is Citrullinated Histone H3 in dHL-60 cells (differentiated HL-60). The test can be described thus: dHL-60 Cit-H3 ELISA assay. In kind it is cell-based, human. As to conditions: read-out: Average IC50 Abs. In outline:
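HL-60 cells differentiated 72 h with DMF, plated at 1×10^5/well, pretreated 30 min with compound (8-point 3-fold series, 0.2% DMSO), then stimulated 3 h at 37 °C with 25 μM A23187 plus S7 nuclease. Supernatant citrullinated H3 quantified by HRP ELISA at 450 nm; IC50 by four-parameter fit.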
(In general: ELISA stands for enzyme-linked immunosorbent assay.)

[1] abbreviates: stimulation with 25 μM A23187 for 3 h.
The mark [2] stands for this setting: Homo sapiens, HL-60, 3 h, stimulation with 25 μM A23187 for 3 h.

Where two headings read alike, the source gives them in different places. Where only a bound is given, the exact number is not on record here.

By IC50 is commonly meant the concentration at which inhibition is half-maximal. Turning to `CCC1CN(CCCO)c2cccc3cc(-c4nc5cc(C(=O)N6C[C@H]7CC[C@@H]6[C@@H]7N)cc(OC)c5n4C)n1c23` (single isomer, unassigned) [Example 87], under setting [1], the IC50 was no more than 100 nM.
For `CCC1CN(CCCO)c2cccc3cc(-c4nc5cc(C(=O)N6C[C@H](N)C[C@@H](F)C6)cc(F)c5n4C)n1c23` (stereo partly drawn) [Example 75, ((3R,5R)-3-amino-5-fluoropiperidin-1-yl)(2-(3-ethyl-1-(3-hydroxypropyl)-2,3-dihydro-1H-pyrrolo[1,2,3-de]quinoxalin-5-yl)-7-fluoro-1-methyl-1H-benzo[d]imidazol-5-yl)methanone], the IC50 under setting [2] lay in the range of 100 to 500 nM.
As for `CCC1CN(CCCO)c2cccc3cc(-c4nc5cc(C(=O)N6C[C@H](N)C[C@@H](F)C6)cc(OC)c5n4C)n1c23` (single isomer, unassigned) [Example 82], the IC50 under setting [1] was no more than 100 nM.
`C#CCn1c(-c2cc3cccc4c3n2C(CC)CN4CCCO)nc2cc(C(=O)N3C[C@H](N)C[C@@H](F)C3)cc(OC)c21` (stereo partly drawn) [Example 95, ((3R,5R)-3-amino-5-fluoropiperidin-1-yl)(2-(3-ethyl-1-(3-hydroxypropyl)-2,3-dihydro-1H-pyrrolo[1,2,3-de]quinoxalin-5-yl)-7-methoxy-1-(prop-2-yn-1-yl)-1H-benzo[d]imidazol-5-yl)methanone]: the IC50 under setting [2] was 100 to 500 nM.
With `CCC1CN(CCCO)c2cccc3cc(-c4nc5cc(C(=O)N6C[C@H]7CC[C@@H]6[C@@H]7N)cc(OC)c5n4C)n1c23` (single isomer, unassigned) [Example 86], the IC50 under setting [1] was 500 to 5000 nM.
Consider `CCC1CN(CCCO)c2cccc3cc(-c4nc5cc(C(=O)N6C[C@H]7CC[C@@H]6[C@@H]7N)cc(F)c5n4CC)n1c23` (stereo partly drawn) [Example 96, ((1R,4R,7R)-7-amino-2-azabicyclo[2.2.1]heptan-2-yl)(1-ethyl-2-(3-ethyl-1-(3-hydroxypropyl)-2,3-dihydro-1H-pyrrolo[1,2,3-de]quinoxalin-5-yl)-7-fluoro-1H-benzo[d]imidazol-5-yl)methanone], for which, for the setting “Homo sapiens, HL-60, stimulation with 25 μM A23187 for 3 h”, the IC50 is no more than 100 nM.
